Holding throughout (test): growth of human tumour cells (NCI), 48 h
In experiment [1] the test system is RPMI-8226 leukemia.
Experiment [2] has as its system U251 CNS.
Experiment [3] concerns LXFL 529 NSCLC.
In experiment [4] the test system is M14 melanoma.
Experiment [5] relates to KM20L2 colon.
The test system of experiment [6] is UO-31 renal.
The subject of experiment [7] is DMS 114 small cell lung.
For experiment [8], the system named is HT29 colon.

Values joined by “and” are separate entries in the source; they are usually repeats but may differ in a detail not shown here. Equal values may be shown once.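 How tested: cells in 96-well plates exposed to compound for 48 hours at five concentrations. Abbreviation: GI50, concentration required for 50% inhibition of growth. TGI: concentration producing complete growth inhibition.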 Bounds are passed on as bounds.

In the case of `O=S(=O)(/C=C/c1ccc(F)cc1)Cc1ccc(CS(=O)(=O)/C=C/c2ccc(F)cc2)cc1`, the TGI in experiment [1], in experiment [2], in experiment [3], in experiment [4], in experiment [5] and in experiment [6] was above 100 µM each time. In addition, the TGI in experiment [7] and in experiment [8] was above 100 µM in each case.

As to `C[C@H](OCc1ccccc1)C(=O)N1CCS(=O)(=O)N2CCC[C@@H]2C1=O`, the TGI in experiment [1], in experiment [2], in experiment [3], in experiment [4], in experiment [5] and in experiment [6] was above 100 µM in each case. The TGI in experiment [7] and in experiment [8] was above 100 µM in each case.

With `O=C1C(c2ccccc2)=C(O)c2cccc3cccc1c23`, the TGI in experiment [1], in experiment [2], in experiment [3], in experiment [4], in experiment [5] and in experiment [6] was above 100 µM each time. Moreover, the TGI in experiment [7] and in experiment [8] was above 100 µM throughout.

As to `Cc1ccc2c(c1)-c1c3c(nn1-c1ccccc1)-c1ccccc1SC3O2` (stereo not drawn), the TGI in experiment [1], in experiment [2], in experiment [3], in experiment [5], in experiment [6] and in experiment [7] was above 100 µM in each case. This molecule had a TGI in experiment [8] above 100 µM.

Take `OC(CCNC12CC3CC(CC(C3)C1)C2)c1ccccc1` (stereo not drawn): the TGI in experiment [2], in experiment [3], in experiment [4], in experiment [5], in experiment [6] and in experiment [7] was above 100 µM throughout. Besides, in experiment [8], the TGI was above 100 µM.

For `COc1ccc(/C=C/c2cc(OC)c(OC)c(OC)c2)cc1`, the TGI in experiment [1] is 12.3 µM; in experiment [2], 11.7 µM; in experiment [3], above 100 µM; in experiment [4], above 100 µM; in experiment [5], 7.84 µM; in experiment [6], above 100 µM. Moreover, the TGI was above 100 µM in experiment [7] and above 38 µM in experiment [8].

`CCOc1cc2c(C(=O)CC)c(O)ccc2o1`: the TGI in experiment [1], in experiment [2], in experiment [3], in experiment [4], in experiment [5] and in experiment [6] was above 100 µM in each case. In addition, the TGI is above 87.2 µM in experiment [7] and above 100 µM in experiment [8].

As to `C=C/C=C/NC(=O)OCc1ccccc1`, the TGI in experiment [1], in experiment [2], in experiment [3], in experiment [4], in experiment [5] and in experiment [6] was above 100 µM throughout. Also, the TGI in experiment [7] and in experiment [8] was above 100 µM in each case.

As to `O=C(c1ccc(Cl)cc1Cl)C1[C@H]2C(=O)N(c3ccc(Cc4ccc(N5C(=O)[C@@H]6ON(c7ccccc7)C(C(=O)c7ccc(Cl)cc7Cl)[C@@H]6C5=O)cc4)cc3)C(=O)[C@H]2ON1c1ccccc1` (stereo partly drawn), the TGI in experiment [1], in experiment [2], in experiment [3], in experiment [4], in experiment [5] and in experiment [6] was above 50 µM in each case. The TGI in experiment [7] and in experiment [8] was above 50 µM each time.

For `NNC(=O)C1CCC(=O)N1S(=O)(=O)c1ccccc1` (stereo not drawn), the TGI in experiment [1], in experiment [2], in experiment [3], in experiment [4], in experiment [5] and in experiment [6] was above 100 µM each time. Further, the TGI in experiment [7] and in experiment [8] was above 100 µM each time.

On to `CCOC(C[C@H](O[Si](C)(C)C(C)(C)C)[C@H]1COC(=S)S1)OCC`, for which the TGI in experiment [1], in experiment [2], in experiment [3], in experiment [4], in experiment [5] and in experiment [6] was above 100 µM throughout. The TGI was above 100 µM in experiment [7] and 41.9 µM in experiment [8].

For the molecule `COc1cc2c[n+](C)c3c4cc(OC)c(OC(C)C)cc4ccc3c2cc1OC`, the TGI in experiment [1] was above 100 µM; in experiment [2], above 100 µM; in experiment [3], 76.1 µM; in experiment [4], above 100 µM; in experiment [5], above 100 µM; in experiment [6], above 100 µM. Moreover, the TGI is 26.7 µM in experiment [7] and above 100 µM in experiment [8].

On to `C[C@@]12CCC(=O)c3coc(c31)C(=O)c1cc3c(cc12)C(=O)C=CC3=O`, for which the GI50 in experiment [1], in experiment [2], in experiment [3], in experiment [4], in experiment [5] and in experiment [6] was above 1 µM throughout. In addition, the GI50 in experiment [7] and in experiment [8] was above 1 µM each time. In addition, the TGI was above 100 µM in experiment [1]; > 1 µM and 52.9 µM in experiment [2]; > 1 µM and 31.3 µM in experiment [3]; > 1 µM and 27.6 µM in experiment [4]; above 100 µM in experiment [5]; > 1 µM and 30.9 µM in experiment [6]. The TGI was > 1 µM and 27.6 µM in experiment [7]; > 1 µM and 39.7 µM in experiment [8].

Regarding `CSc1nnc(CCC(=O)Nc2c(C)cccc2C)o1`, the TGI in experiment [1], in experiment [2], in experiment [3], in experiment [4], in experiment [5] and in experiment [6] was above 100 µM in each case. For the same molecule, the TGI in experiment [7] and in experiment [8] was above 100 µM in each case.

(Values after PubChem BioAssay (NCI).)
